This note sets out measurements from article PMC10122656, “Siglec-6 mediates the uptake of extracellular vesicles through a noncanonical glycolipid binding pocket” (Nature Communications, 2023).

Experiment [1] concerns the target T1, Siglec-11 WT CHO cells (Homo sapiens, UniProt Q96RL6).
T1 construct: expressed in transfected cells
T1 sequence (Q96RL6 28-698): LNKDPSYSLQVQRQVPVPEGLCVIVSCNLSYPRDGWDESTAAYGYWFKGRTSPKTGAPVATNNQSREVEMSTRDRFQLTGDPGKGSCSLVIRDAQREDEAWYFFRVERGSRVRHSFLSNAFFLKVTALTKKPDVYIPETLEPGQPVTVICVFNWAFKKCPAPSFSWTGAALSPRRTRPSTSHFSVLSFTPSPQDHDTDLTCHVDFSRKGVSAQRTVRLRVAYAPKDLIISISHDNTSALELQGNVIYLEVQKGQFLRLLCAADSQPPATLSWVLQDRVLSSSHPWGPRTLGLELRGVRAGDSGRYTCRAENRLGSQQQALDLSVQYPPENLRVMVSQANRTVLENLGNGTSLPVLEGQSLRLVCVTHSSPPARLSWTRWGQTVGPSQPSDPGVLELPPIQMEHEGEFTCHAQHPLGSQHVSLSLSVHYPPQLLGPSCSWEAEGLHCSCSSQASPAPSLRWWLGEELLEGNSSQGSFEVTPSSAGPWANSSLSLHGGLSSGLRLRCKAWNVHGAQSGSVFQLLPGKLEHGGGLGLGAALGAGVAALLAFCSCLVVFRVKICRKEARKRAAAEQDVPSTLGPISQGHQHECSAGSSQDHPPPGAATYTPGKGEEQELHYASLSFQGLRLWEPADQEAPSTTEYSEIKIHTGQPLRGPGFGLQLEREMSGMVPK
As to the kind of experiment: Cell assay (liposome/EV binding, flow cytometry). The class given is cell-based. Conditions: Sig-11 WT; 3 mol% ganglioside liposomes; replicates. The procedure:
Stock lipids (DSPC, Cholesterol, PEG45–DSPE) solutions were prepared by solvating the lipids in chloroform. An appropriate volume of each lipid solution was transferred to a glass test tube to reach the desired mol% of the component. The chloroform was then removed under N2 gas to yield a lipid thin film. Once dry, 100 µL of DMSO was added to the lipid-containing test tube and then the functional lipids (ganglioside, AF647–PEG45–DSPE, Siglec ligand–PEG45–DSPE, pHrodo–PEG45–DSPE, NGL) was added from their respect DMSO stock solution. The lipid mixture was then stored at −80 °C until completely frozen at which point excess DMSO was removed via lyophilization. Dry lipids were then stored at −80 °C until they were extruded. Lipid suppliers can be found in Supplementary Table 4.
Dry lipids were then hydrated in 1 mL of PBS. The lipids were then sonicated in a bath sonicator in a cycle of 1 min on, 5 min off for a total of five cycles. Liposomes were then extruded using an Avanti mini extruder first using an 800 nm filter and then a 100 nm filter yielding liposomes that were 130 ± 35 nm (Supplementary Table 5) measured using a Malvern Panalytical Zetasizer Nano S. Liposomes were stored at 4 °C.
200,000 cells/well were plated into a 96-well U-bottom microplate and centrifuged at 300 × g for 5 min. The cells were then resuspended in 50 µL of 50 µM liposome/50 µg/mL (protein concentration) of EV solution in DMEM F12 5% FBS and incubated at 37 °C for 30 min. Excess liposomes were then removed via centrifuged at 300 × g for 5 min followed by washing the cells with FACS solution. The cells were then resuspended in (1:250 V/V) anti-Siglec-flow buffer (1% V/V FBS, 500 µM, EDTA Hank’s Balanced Salt Solution pH 7.4), solution and left to rest on ice for 30 min. The cells were then centrifuged again at 300 × g for 5 min and the cells were resuspended in FACS buffer solution and were then ready for analysis by flow cytometry. Information regarding antibody clone, catalog number supplier, label isotype, and dilution can be found in Supplementary Table 6. The Siglec-positive cells were gated on for liposome-binding analysis (Supplementary Fig. 1b).
Flow cytometry measurements were collected on a 5-laser Fortessa X-20 (BD Bioscience). All the resulting data were analyzed using FlowJo (10.5.3) software (BD Biosciences).
Background: In flow cytometry, cells or beads pass a laser one at a time.

The subject of experiment [2] is Siglec-1-Fc R116A. As to the kind of experiment: Ganglioside ELISA. The class given is binding, human. Conditions: Figure 2c, replicates. The procedure:
Siglec-Fc constructs designed by Rodrigues et al.[30] were used in this work. Siglec-Fc constructs were expressed using WT CHO cells in cell culture media as described above with 1% HEPES. Cells incubated as described above for one-week post confluency. The supernatant was harvested and stored at 4 °C.
The purification was heavily inspired by Rodrigues et al.[30]. The purification of the Siglec-Fcs from supernatant began with Ni^2+ affinity chromatography using an AKTA FPLC equipped with a HisTrap Excel column (GE). The column was equilibrated with fifteen column volumes (CVs) of equilibrium buffer (500 mM NaCl, 20 mM NaPO4H2, pH 7.4). The Siglec-Fc containing supernatant was then loaded in its entirety onto the column. The column was then washed with fifteen CVs of wash buffer (500 mM NaCl, 30 mM imidazole, 20 mM NaPO4H2, pH 7.4). The Siglec-Fc was then eluted in 20 in 1 mL fractions with twenty CVs of elution buffer (500 mM NaCl, 500 mM imidazole, 20 mM NaPO4H2, pH 7.4). […] A Strep-Tactin column (IBA life sciences) was washed with fifteen CVs of buffer W. The Siglec-Fc-buffer W solution was then loaded in its entirety onto the column. […] Fractions containing Siglec-Fc were pooled and dialyzed against PBS to remove any d-Desthiobiotin. After dialysis, Siglec-Fcs were concentrated using an ultra-centrifugal device (30 kDa MWCO) and aliquoted into 5 µg aliquots, and frozen. The Siglec-Fcs were then lyophilized overnight, and the lyophilized Siglec-Fcs were stored at −20 °C.
Our ELISA approach was carried out similarly to previous work by Rapoport[12] and Yamakawa[44]. Ganglioside ethanol solutions (10 µM) were prepared and then transferred in 50 µL increments to a 96-well microplate. The ethanol was removed by drying the plates overnight at room temperature. The plates were then washed with PBS, dried, and then blocked with 5% (m/V) BSA PBS for 1 h. The plates were then washed with PBS and then 2 µg/mL Siglec-Fc precomplexed to Strep-Tactin (2 Siglec-Fc:1 Strep-Tactin monomer) horse radish peroxidase was added to the microplate. The complex was incubated with the plate at room temperature for 2 h. The unbound complexes were then removed by washing in PBS and the plate was developed with Sera care TMB solution. The amount of binding was then quantified by using the background (microplate well with no ligand) subtracted absorbance at 450 nm using a Molecular Devices SpectraMAX ® iD5.
A general note: ELISA stands for enzyme-linked immunosorbent assay.

Values joined by “and” are separate entries in the source; they are usually repeats but may differ in a detail not shown here. Equal values may be shown once.

Siglec-1-Fc R116A, sequence (Q9BZZ2 20-136 R116A limits assumed): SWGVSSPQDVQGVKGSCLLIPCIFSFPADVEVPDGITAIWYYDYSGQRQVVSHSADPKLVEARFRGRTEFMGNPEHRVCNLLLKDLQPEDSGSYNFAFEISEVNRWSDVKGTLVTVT

On to GD1a, for which, in experiment [1], the “log10(MFI AF647) of GLL relative to log10(MFI AF647) of the same GLL against UT CHO cells (Fig. 2a)” value is -0.11 (2×) and -0.07 and -0.09. Moreover, the “ganglioside ELISA signal, Siglec-1 R” value in experiment [2] is 0.06 and 0.08 and 0.11 and 0.09.
In the case of GD1b, the “log10(MFI AF647) of GLL relative to log10(MFI AF647) of the same GLL against UT CHO cells (Fig. 2a)” value in experiment [1] was -0.1 (3×) and -0.09. In addition, the “ganglioside ELISA signal, Siglec-1 R” value in experiment [2] is 0.11 and 0.13 and 0.17.
As for GD3, the “log10(MFI AF647) of GLL relative to log10(MFI AF647) of the same GLL against UT CHO cells (Fig. 2a)” value in experiment [1] was -0.13 and -0.11 and -0.09 (2×). The “ganglioside ELISA signal, Siglec-1 R” value in experiment [2] was 0.22 and 0.18 and 0.24 and 0.28.
In the case of GM1, the “log10(MFI AF647) of GLL relative to log10(MFI AF647) of the same GLL against UT CHO cells (Fig. 2a)” value in experiment [1] was 0.11 and 0.12 and 0.14 and 0.13. In addition, in experiment [2], the “ganglioside ELISA signal, Siglec-1 R” value is 0.07 and 0.08 and 0.1 and 0.14.
With GM2, the “log10(MFI AF647) of GLL relative to log10(MFI AF647) of the same GLL against UT CHO cells (Fig. 2a)” value in experiment [1] was -0.06 and -0.03 (2×) and -0.04. Further, the “ganglioside ELISA signal, Siglec-1 R” value in experiment [2] is 0.07 and 0.09 and 0.15 and 0.11.
On to GM3, for which the “log10(MFI AF647) of GLL relative to log10(MFI AF647) of the same GLL against UT CHO cells (Fig. 2a)” value in experiment [1] is -0.1 and -0.09 and -0.11 and -0.12. For the same substance, the “ganglioside ELISA signal, Siglec-1 R” value in experiment [2] was 0.33 and 0.4 and 0.43 and 0.46.
Consider GM4, for which, in experiment [1], the “log10(MFI AF647) of GLL relative to log10(MFI AF647) of the same GLL against UT CHO cells (Fig. 2a)” value was -0.11 and -0.09 (2×) and -0.07. For the same substance, in experiment [2], the “ganglioside ELISA signal, Siglec-1 R” value is 0.18 and 0.21 and 0.26 and 0.27.
Regarding GQ1b, the “log10(MFI AF647) of GLL relative to log10(MFI AF647) of the same GLL against UT CHO cells (Fig. 2a)” value in experiment [1] is -0.25 and -0.21 and -0.2 and -0.24. Moreover, the “ganglioside ELISA signal, Siglec-1 R” value in experiment [2] was -0.01 and -0.02 and 0.
In the case of GT1b, the “log10(MFI AF647) of GLL relative to log10(MFI AF647) of the same GLL against UT CHO cells (Fig. 2a)” value in experiment [1] is -0.17 and -0.15 and -0.13 (2×). Besides, the “ganglioside ELISA signal, Siglec-1 R” value in experiment [2] is 0.02 and 0.04 and 0.03.
